Experimental data as given in patent US20220400729A1, “SYNERGISTIC COMBINATION OF BUTYRIC-ACID-PRODUCING PREBIOTICS AND PROBIOTICS” (INNER MONGOLIA YILI INDUSTRIAL GROUP CO., LTD, priority 2019, published 2022).

Test system: Bifidobacterium lactis HNO19
Assay: Growth test of Bifidobacterium lactis HNO19: organic acids in culture broth by HPLC
Format: cell-based
Conditions: HNO19 in MRS+0.05% cysteine medium with 1% carbon source, HPLC at 12 hours
Description: Bifidobacterium lactis HNO19 was purchased from Danisco. The strain was cultured in de Man Rogosa Sharpe (MRS) broth (Difco, Detroit, Md.) supplemented with 0.5 g/LL-cysteine and incubated for 24 h at 37° C. under anaerobic conditions. […] After the second passage, the culture was prepared for use as inoculum for the growth tests described below. Various carbon source stock solutions were sterilized by passing through 0.22 micron filters and used at 1% final concentration. […] The contents of lactic acid, acetic acid, propionic acid and butyric acid in the above-mentioned various combined culture broths were measured by high performance liquid chromatography (HPLC) at 12 hours.

Compound: OC[C@H]1O[C@@H](O[C@@H]2[C@@H](CO)O[C@](O)(CO)[C@H]2O)[C@H](O)[C@@H](O)[C@H]1O [LOS, 4-O-β-D-galactopyranosyl-4-D-fructose]
- Contents of organic acids in the culture medium: Acetic acid: 0.238 ± 0.002
- Contents of organic acids in the culture medium: Lactic acid: 0.034 ± 0.002
- Contents of organic acids in the culture medium: Total amount of organic acid: 0.272 ± 0.004
